Some test systems named below: LOX IMVI; EKVX; ACHN; SK-MEL-28; SF-539; SW-620; SNB-19; HCT-15; HCC 2998; A549; SN12C; NCI-H226; OVCAR-3; MDA-MB-231; NCI/ADR-RES; T47D; HOP-92; Hs-578T.
Test in all cases: DTP human tumour cell line panel, 48 h

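Five compound concentrations were applied to cells in 96-well plates for 48 hours; endpoints were derived by simple linear interpolation of the resulting dose-response curve. GI50 is the concentration that inhibits growth by half.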 Calls of active or inactive are those of the source. Rule as the data show it: active = GI50 up to about 1.1 µM and inactive = higher. Where a SMILES comes first, the peptide text is derived from it. [ ]: non-standard residue; d: D form. Phe(4-NO2) = N[CH](Cc1ccc([N+](=O)[O-])cc1)C(=O)O

Usually GI50 stands for the concentration giving 50% growth inhibition. `Oc1cc(-c2ccc[nH]2)nc2cc3c(cc12)OCO3`: the GI50 in the test on LOX IMVI is 64.1 µM (inactive); with EKVX, 55.3 µM (inactive); in the test with ACHN, 88.1 µM (inactive); with SK-MEL-28, 65.2 µM (inactive); with SF-539 it was 29.6 µM (inactive); in the test with SW-620, 21.6 µM (inactive). In addition, the GI50 with SNB-19 is 37.7 µM (inactive); in the test with HCT-15, 23.2 µM; in the test with HCC 2998, 28.8 µM (inactive); with A549, 53.8 µM (inactive); in the test on SN12C it was 49 µM (inactive).

As to `N#Cc1c(-c2ccccc2)c(/C=N/c2ccc(Cl)cc2)c(=O)n2c1[nH]c1ccccc12`, the GI50 in the test on NCI-H226 was > 100 µM (inactive); in the test on LOX IMVI, > 100 µM (inactive); with OVCAR-3, 80.9 µM (inactive); in the test on ACHN, 65.2 µM (inactive); in the test on SK-MEL-28, > 100 µM (inactive); with MDA-MB-231, > 100 µM (inactive). Further, the GI50 in the test on SF-539 is > 100 µM (inactive); with SW-620 it was > 100 µM (inactive); with NCI/ADR-RES, > 100 µM (inactive); in the test on SNB-19 it was > 100 µM (inactive); in the test on HCT-15, greater than 100 µM; in the test with HCC 2998, > 100 µM (inactive). Also, the GI50 in the test on A549 was 83.9 µM (inactive); with SN12C, 97.7 µM (inactive); in the test with T47D it was > 100 µM (inactive).

For `NNC(=O)c1nnn(CCc2ccccc2)c1C(=O)NN`, the GI50 with LOX IMVI, in the test on OVCAR-3, with EKVX, in the test on ACHN, in the test on SK-MEL-28 and in the test on MDA-MB-231 was > 100 µM (inactive) each time. For the same compound, the GI50 in the test with NCI/ADR-RES is > 100 µM (inactive); with SNB-19, > 100 µM (inactive); with HCT-15 it was greater than 100 µM; with HCC 2998, > 100 µM (inactive); in the test with A549, > 100 µM (inactive); with SN12C, > 100 µM (inactive).

In the case of `CCCCOC(=O)NC(Nc1ccc(S(=O)(=O)Nc2ccc(OC)nn2)cc1)(C(F)(F)F)C(F)(F)F`, the GI50 in the test on NCI-H226 was > 100 µM (inactive); in the test on LOX IMVI it was > 100 µM (inactive); with OVCAR-3, > 100 µM (inactive); with EKVX, > 100 µM (inactive); in the test on ACHN, > 100 µM (inactive); with HOP-92, 78.2 µM (inactive). Moreover, the GI50 in the test with SK-MEL-28, in the test on MDA-MB-231, in the test with SF-539, in the test on SW-620, in the test with NCI/ADR-RES and in the test on SNB-19 was > 100 µM (inactive) each time. For the same compound, the GI50 is greater than 100 µM in the test on HCT-15; > 100 µM (inactive) with HCC 2998; > 100 µM (inactive) with A549; > 100 µM (inactive) in the test on SN12C; > 100 µM (inactive) in the test on T47D.

As for `COc1ccc(C(O)c2ccc3c(c2)OCO3)cc1` (stereo unspecified), the GI50 in the test on NCI-H226, with LOX IMVI, with OVCAR-3, in the test with EKVX, in the test with ACHN and in the test on HOP-92 was > 100 µM (inactive) each time. Besides, the GI50 was > 100 µM (inactive) in the test on SK-MEL-28; > 100 µM (inactive) with MDA-MB-231; > 100 µM (inactive) with SF-539; > 100 µM (inactive) with SW-620; 65.6 µM (inactive) with NCI/ADR-RES; > 100 µM (inactive) in the test with SNB-19. Also, the GI50 with HCT-15 is greater than 100 µM; in the test on HCC 2998, > 100 µM (inactive); with A549, > 100 µM (inactive); with SN12C it was > 100 µM (inactive); with T47D, 99.3 µM (inactive).

For `CC(=O)OCc1cc(OC(C)=O)c2cc3c(OC(C)=O)cccc3c(OC(C)=O)c2c1`, the GI50 is 23.1 µM (inactive) in the test on NCI-H226; 13.7 µM (inactive) in the test on OVCAR-3; 6.7 µM (inactive) in the test with EKVX; 11.6 µM (inactive) with ACHN; 20.4 µM (inactive) with HOP-92; 23 µM (inactive) in the test on SK-MEL-28. Moreover, the GI50 is 17.1 µM (inactive) with MDA-MB-231; 12.2 µM (inactive) with SW-620; 17.2 µM (inactive) with NCI/ADR-RES; 18.3 µM (inactive) in the test with SNB-19; 5.61 µM in the test with HCT-15; 14.5 µM (inactive) in the test with HCC 2998. Moreover, the GI50 in the test on A549 was 12.5 µM (inactive); with SN12C, 12.2 µM (inactive); in the test on T47D it was 21.7 µM (inactive).

Regarding `CN(N=O)C(=O)Nc1c[nH]c(=O)[nH]c1=O`, the GI50 with NCI-H226, with LOX IMVI, in the test with OVCAR-3, in the test on EKVX, in the test on ACHN and in the test with HOP-92 was > 100 µM (inactive) each time. For the same compound, the GI50 in the test with SK-MEL-28, in the test on MDA-MB-231, in the test with SF-539, in the test on SW-620, in the test with NCI/ADR-RES and in the test with SNB-19 was > 100 µM (inactive) each time. Further, the GI50 was greater than 100 µM in the test on HCT-15; > 100 µM (inactive) in the test on HCC 2998; > 100 µM (inactive) with A549; > 100 µM (inactive) in the test with SN12C; > 100 µM (inactive) in the test with T47D.

With `OC1(c2ccccc2)C2CCN(CC2)C1CN1CCOCC1` (stereo unspecified), the GI50 with NCI-H226, in the test with LOX IMVI, in the test with OVCAR-3, in the test on EKVX, in the test with ACHN and in the test with SK-MEL-28 was > 100 µM (inactive) each time. The GI50 with MDA-MB-231 is > 100 µM (inactive); in the test on SF-539 it was > 100 µM (inactive); with SW-620, > 100 µM (inactive); in the test on NCI/ADR-RES, > 100 µM (inactive); with SNB-19, > 100 µM (inactive); in the test with HCT-15 it was greater than 100 µM. Moreover, the GI50 with HCC 2998, in the test with A549, in the test on SN12C and in the test on T47D was > 100 µM (inactive) each time.

With `O=C1C(NS(=O)(=O)c2ccccc2)=C(n2cnc3ccccc32)C(=O)c2ccccc21`, the GI50 with NCI-H226 was > 100 µM (inactive); in the test on LOX IMVI it was > 100 µM (inactive); in the test on OVCAR-3 it was > 100 µM (inactive); in the test on Hs-578T, 48.6 µM (inactive); in the test on EKVX, > 100 µM (inactive); in the test with ACHN it was > 100 µM (inactive). For the same compound, the GI50 in the test with HOP-92 was 41.4 µM (inactive); in the test on SK-MEL-28, > 100 µM (inactive); in the test with MDA-MB-231, 48.9 µM (inactive); in the test on SF-539 it was > 100 µM (inactive); in the test on SW-620 it was > 100 µM (inactive); in the test on NCI/ADR-RES it was > 100 µM (inactive). For the same compound, the GI50 is 38.4 µM (inactive) in the test on SNB-19; greater than 100 µM with HCT-15; > 100 µM (inactive) in the test on HCC 2998; > 100 µM (inactive) in the test on A549; > 100 µM (inactive) with SN12C.

Consider `CCN1CC2=C(NC(=S)NC2c2ccc(Cl)cc2)/C(=C/c2ccc(Cl)cc2)C1` (stereo unspecified), for which the GI50 was > 100 µM (inactive) in the test on NCI-H226; > 100 µM (inactive) in the test with LOX IMVI; 61.5 µM (inactive) in the test on OVCAR-3; 57.5 µM (inactive) with Hs-578T; > 100 µM (inactive) in the test on EKVX; 55.7 µM (inactive) in the test with ACHN. In addition, the GI50 is 24.4 µM (inactive) in the test with SK-MEL-28; > 100 µM (inactive) with MDA-MB-231; 67.1 µM (inactive) in the test with SW-620; > 100 µM (inactive) in the test with NCI/ADR-RES; 68.9 µM (inactive) with SNB-19; 54.7 µM in the test on HCT-15. In addition, the GI50 was 53.8 µM (inactive) in the test on HCC 2998 and 29.7 µM (inactive) in the test on A549.

For the compound `CC(=O)C1C(=O)C(=O)N(c2ccccc2)C1=O` (stereo unspecified), the GI50 in the test with NCI-H226, with LOX IMVI, with OVCAR-3, in the test with Hs-578T, in the test with EKVX and with ACHN was > 100 µM (inactive) throughout. Moreover, the GI50 in the test with HOP-92, in the test on SK-MEL-28, with MDA-MB-231, with SF-539, in the test on SW-620 and with NCI/ADR-RES was > 100 µM (inactive) throughout. For the same compound, the GI50 in the test with SNB-19 is > 100 µM (inactive); in the test with HCT-15 it was greater than 100 µM; in the test with HCC 2998, > 100 µM (inactive); with A549, > 100 µM (inactive); with SN12C it was > 100 µM (inactive).

For `O=C(O)CNC(=O)c1c2ccccc2nc2ccccc12`, the GI50 in the test with NCI-H226, in the test with LOX IMVI, in the test with OVCAR-3, with EKVX, with ACHN and with HOP-92 was > 100 µM (inactive) throughout. Moreover, the GI50 in the test with SK-MEL-28, in the test with MDA-MB-231, in the test with SF-539, in the test with SW-620, in the test with NCI/ADR-RES and with SNB-19 was > 100 µM (inactive) each time. Also, the GI50 was greater than 100 µM with HCT-15, > 100 µM (inactive) in the test with HCC 2998, > 100 µM (inactive) in the test with A549 and > 100 µM (inactive) in the test with SN12C.

Consider `COC(=O)CCC(NC(=O)C(CCC(=O)OC)NC(=O)C(CCC(=O)OC)NC(=O)C(CCC(=O)OC)NC(=O)C(CCC(=O)OC)NC(=O)C(Cc1ccc([N+](=O)[O-])cc1)NC(=O)C(CCC(=O)OC)NC(=O)C(CCC(=O)OC)NC(=O)C(CCC(=O)OC)NC(=O)C(CCC(=O)OC)NC(=O)C(CCC(=O)OC)NC(C)=O)C(N)=O` (stereo unspecified) (Ac-E(OMe)E(OMe)E(OMe)E(OMe)E(OMe)[Phe(4-NO2)]E(OMe)E(OMe)E(OMe)E(OMe)E(OMe)-NH2; configuration not given here), for which the GI50 with LOX IMVI is > 100 µM (inactive); with Hs-578T it was 20 µM (inactive); with EKVX it was > 100 µM (inactive); in the test with ACHN it was > 100 µM (inactive); in the test with SK-MEL-28 it was > 100 µM (inactive); in the test with MDA-MB-231, 48.1 µM (inactive). Further, the GI50 in the test with SW-620 was > 100 µM (inactive); with NCI/ADR-RES, > 100 µM (inactive); in the test with SNB-19, > 100 µM (inactive); in the test with HCT-15, greater than 10 µM; in the test on A549 it was > 100 µM (inactive); with SN12C, > 100 µM (inactive).

For the origin of these results see ChEMBL document CHEMBL1201862, “PubChem BioAssay data set” (2004).
